The record followed here is the supplement of paper PMC10307832.

What all share (assay): relative viability (nuclei count vs DMSO), 5 days (fraction); higher = more cells survive
Compound in the assay “GSK-J4 + Palbociclib”: CCOC(=O)CCNc1cc(N2CCc3ccccc3CC2)nc(-c2ccccn2)n1 [GSK-J4] + CC(=O)c1c(C)c2cnc(Nc3ccc(N4CCNCC4)cn3)nc2n(C2CCCC2)c1=O [Palbociclib] (partner 0.5 µM)
The gist of the method:
(§1)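 Relative viability was taken as the ratio of nuclei in treated wells to nuclei in vehicle wells. Lung cancer cell lines in 1536-well plates received compounds by pin tool one day after seeding, either one drug alone or a fixed anchor-drug dose plus five library-drug doses (not always all listed) in √10 steps. Nuclei were counted on 4× images after 5 days of treatment, and values are medians of duplicate plates.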

Compound in the assay “AZ3146 + Palbociclib”: CN1CCC(CC1)OC2=CC(=C(C=C2)NC3=NC=C4C(=N3)N(C(=O)N4C)C5CCCC5)OC [AZ3146] + CC(=O)c1c(C)c2cnc(Nc3ccc(N4CCNCC4)cn3)nc2n(C2CCCC2)c1=O [Palbociclib] (partner 0.5 µM)
Summed up:
as §1

Compound in the assay “AZ3146 + Pictilisib”: CN1CCC(CC1)OC2=CC(=C(C=C2)NC3=NC=C4C(=N3)N(C(=O)N4C)C5CCCC5)OC [AZ3146] + CS(=O)(=O)N1CCN(Cc2cc3nc(-c4cccc5[nH]ncc45)nc(N4CCOCC4)c3s2)CC1 [Pictilisib] (partner 1 µM)
The gist of the method: as §1

Compound in the assay “AZ3146 + Olaparib”: CN1CCC(CC1)OC2=CC(=C(C=C2)NC3=NC=C4C(=N3)N(C(=O)N4C)C5CCCC5)OC [AZ3146] + O=C(c1cc(Cc2n[nH]c(=O)c3ccccc23)ccc1F)N1CCN(C(=O)C2CC2)CC1 [Olaparib] (partner 8 µM)
Summed up:
as §1

As to RERF-LC-KJ, the relative viability with GSK-J4 + Palbociclib (first compound 0.5 µM) worked out at 1.07; with GSK-J4 + Palbociclib (first compound 1.581 µM) it was 0.954; with GSK-J4 + Palbociclib (first compound 5 µM), 1.13; with GSK-J4 + Palbociclib (first compound 15.81 µM), 1.04; with GSK-J4 + Palbociclib (first compound 50 µM), 0.728; with AZ3146 + Palbociclib (first compound 0.08 µM), 1.05. For the same cell line, the relative viability with AZ3146 + Palbociclib (first compound 0.253 µM) worked out at 1.17; with AZ3146 + Palbociclib (first compound 0.8 µM), 1.01; with AZ3146 + Palbociclib (first compound 2.53 µM) it was 1.21; in the assay with AZ3146 + Palbociclib (first compound 8 µM) it was 0.833; in the assay with AZ3146 + Pictilisib (first compound 0.08 µM), 0.513; in the assay with AZ3146 + Pictilisib (first compound 0.253 µM), 0.53. Further, the relative viability in the assay with AZ3146 + Pictilisib (first compound 0.8 µM) turned out to be 0.549; with AZ3146 + Pictilisib (first compound 2.53 µM) it was 0.696; in the assay with AZ3146 + Pictilisib (first compound 8 µM), 0.516; with AZ3146 + Olaparib (first compound 0.08 µM), 0.94; with AZ3146 + Olaparib (first compound 0.253 µM), 0.833; with AZ3146 + Olaparib (first compound 0.8 µM), 0.902. Besides, the relative viability with AZ3146 + Olaparib (first compound 2.53 µM) was 0.852; with AZ3146 + Olaparib (first compound 8 µM), 0.462.
As to SK-LU-1, the relative viability in the assay with GSK-J4 + Palbociclib (first compound 0.5 µM) was 0.362; with GSK-J4 + Palbociclib (first compound 1.581 µM), 0.421; with GSK-J4 + Palbociclib (first compound 5 µM), 0.346; with GSK-J4 + Palbociclib (first compound 15.81 µM), 0.336; in the assay with GSK-J4 + Palbociclib (first compound 50 µM), 0.295; in the assay with AZ3146 + Palbociclib (first compound 0.08 µM) it was 0.375. In addition, the relative viability worked out at 0.365 with AZ3146 + Palbociclib (first compound 0.253 µM); 0.355 with AZ3146 + Palbociclib (first compound 0.8 µM); 0.404 with AZ3146 + Palbociclib (first compound 2.53 µM); 0.386 in the assay with AZ3146 + Palbociclib (first compound 8 µM); 0.571 with AZ3146 + Pictilisib (first compound 0.08 µM); 0.507 in the assay with AZ3146 + Pictilisib (first compound 0.253 µM). The relative viability with AZ3146 + Pictilisib (first compound 0.8 µM) is 0.693; with AZ3146 + Pictilisib (first compound 2.53 µM), 0.651; with AZ3146 + Pictilisib (first compound 8 µM), 0.535; with AZ3146 + Olaparib (first compound 0.08 µM), 0.452; with AZ3146 + Olaparib (first compound 0.253 µM) it was 0.496; with AZ3146 + Olaparib (first compound 0.8 µM) it was 0.414. For the same cell line, the relative viability stood at 0.445 with AZ3146 + Olaparib (first compound 2.53 µM) and 0.441 with AZ3146 + Olaparib (first compound 8 µM).
On to SK-MES-1, for which the relative viability stood at 0.314 in the assay with GSK-J4 + Palbociclib (first compound 0.5 µM); 0.29 with GSK-J4 + Palbociclib (first compound 1.581 µM); 0.319 in the assay with GSK-J4 + Palbociclib (first compound 5 µM); 0.283 with GSK-J4 + Palbociclib (first compound 15.81 µM); 0.313 with GSK-J4 + Palbociclib (first compound 50 µM); 0.331 in the assay with AZ3146 + Palbociclib (first compound 0.08 µM). For the same cell line, the relative viability was 0.344 with AZ3146 + Palbociclib (first compound 0.253 µM); 0.346 with AZ3146 + Palbociclib (first compound 0.8 µM); 0.291 with AZ3146 + Palbociclib (first compound 2.53 µM); 0.305 with AZ3146 + Palbociclib (first compound 8 µM); 0.349 with AZ3146 + Pictilisib (first compound 0.08 µM); 0.376 with AZ3146 + Pictilisib (first compound 0.253 µM). Moreover, the relative viability with AZ3146 + Pictilisib (first compound 0.8 µM) stood at 0.388; in the assay with AZ3146 + Pictilisib (first compound 2.53 µM), 0.371; with AZ3146 + Pictilisib (first compound 8 µM), 0.373; in the assay with AZ3146 + Olaparib (first compound 0.08 µM) it was 0.779; with AZ3146 + Olaparib (first compound 0.253 µM), 0.759; in the assay with AZ3146 + Olaparib (first compound 0.8 µM), 0.718. The figures for the relative viability in the assay with AZ3146 + Olaparib (first compound 2.53 µM) and with AZ3146 + Olaparib (first compound 8 µM) were 0.784 and 0.654, respectively.
Turning to SW 1573, the relative viability in the assay with GSK-J4 + Palbociclib (first compound 0.5 µM) was determined as 0.38; in the assay with GSK-J4 + Palbociclib (first compound 1.581 µM) it was 0.336; in the assay with GSK-J4 + Palbociclib (first compound 5 µM), 0.347; with GSK-J4 + Palbociclib (first compound 15.81 µM), 0.382; in the assay with GSK-J4 + Palbociclib (first compound 50 µM), 0.237; with AZ3146 + Palbociclib (first compound 0.08 µM), 0.359. For the same cell line, the relative viability is 0.368 in the assay with AZ3146 + Palbociclib (first compound 0.253 µM); 0.421 in the assay with AZ3146 + Palbociclib (first compound 0.8 µM); 0.401 in the assay with AZ3146 + Palbociclib (first compound 2.53 µM); 0.358 with AZ3146 + Palbociclib (first compound 8 µM); 0.457 with AZ3146 + Pictilisib (first compound 0.08 µM); 0.539 in the assay with AZ3146 + Pictilisib (first compound 0.253 µM). Further, the relative viability with AZ3146 + Pictilisib (first compound 0.8 µM) stood at 0.507; with AZ3146 + Pictilisib (first compound 2.53 µM) it was 0.633; with AZ3146 + Pictilisib (first compound 8 µM) it was 0.443; in the assay with AZ3146 + Olaparib (first compound 0.08 µM), 0.569; with AZ3146 + Olaparib (first compound 0.253 µM), 0.507; in the assay with AZ3146 + Olaparib (first compound 0.8 µM), 0.575. Also, the results for the relative viability with AZ3146 + Olaparib (first compound 2.53 µM) and in the assay with AZ3146 + Olaparib (first compound 8 µM) were 0.374 and 0.227, respectively.
